According to patent US10857167B2, “Use of oligosaccharide compositions to enhance weight gain” (Children's Hospital Medical Center, priority 2015, dated 2020):
“Also recorded” adds a separate entry of the source.

Legend:
[1] = system: mouse model of adaptation following extensive ileocecal resection (ICR); test: Weight change after ileocecal resection (ICR) in mice; format: in vivo; conditions: for weight / weight gain compared to control after ICR: 56 day experiment, on and beyond postoperative day 21
From the text: A mouse model of adaptation following intestinal resection was previously reported. Under the aid of an operating microscope and utilizing sedation with 2% isoflurane, a midline incision was made […] and the bowel was eviscerated (FIG. 7). […] Intestinal continuity was restored by end-to-end anastomosis and the abdomen of mice was closed (FIG. 9). The mice received one dose of intraperitoneal broad-spectrum antibiotics. In particular, C57 Black 6 mice of 8 to 10 weeks in age were subjected to ileocecal resection (FIG. 11). 5 animals were carried to post-operative day 56 in the usual fashion. Seven animals were carried to the same time point but supplemented with 2'Fucosyllactose. 2'FL was added to both liquid diet (LD) and standard diet (SD) with water to achieve a final concentration of 21⁄2 grams per liter. All animals were weighed once daily during the first week then once every other day thereafter. Male C57BL/6 mice (Jackson Labs, Me.) of 8 to 10 weeks of age were weighed and started on an exclusive polymeric formula diet one day prior to experiment start (Jevity 1 Cal, Abbott Nutrition, Columbus, Ohio). All mice were administered one dose of intraperitoneal Zosyn (at approximately 100 mg/kg) on experiment day 0. All animals were grouped by operation status and subgrouped into treatment and control arms (Table 4). Liquid diet was refreshed and weights obtained daily for 7 days then all mice were transitioned to a standard chow diet with access to water. Animals in both groups were weighed every other day and taken to 21 or 56 days for experiment completion. All animal studies were approved by the Cincinnati Children's Hospital Medical Center Institutional Animal Care and Use Committee. Non-operated animals were maintained as described above. Operated animals were taken to the operating room on experimental day 0 and underwent ileocecal resection (ICR) as previously described in […] et al. (2007) American journal of physiology Gastrointestinal and liver physiology 293: G1013-1022. Under the aid of an operating microscope and utilizing sedation with 2% isoflurane, a midline incision was made and the bowel eviscerated. The ileocecal junction was identified and approximately 12 cm of ileum and cecum were resected. Resected small bowel tissue and luminal contents were collected as described below. Intestinal continuity was restored by end-to-end anastomosis and the abdomen was closed (FIG. 28). ICR mice were then assigned to control or treatment subgroups, were administered analgesia with subcutaneous buprenorphine (0.05-0.1 mg/kg) and recovered overnight in a standard neonatal incubator warmed to approximately 38 degrees Celsius. Control (non-operated) animals were maintained as described above. Beginning on experiment day 0, treatment animals were supplemented with 2'-Fucosyllactose. 2'-FL was added to formula then water to a final concentration of 2.5 grams per liter. Formula was refreshed daily and water refreshed every other day. […] Intestinal length was compared across groups using the Wilcoxon rank-sum test as values were not normally distributed. Histologic count data was averaged per mouse across two samples and compared by the Wilcoxon rank-sum test. Weight data was analyzed using Stata version 13.0 (StataCorp LP, TX). Remaining morphometric and histologic data were analyzed using GraphPad Prism version 5 (GraphPad Software Inc, CA).

[2] = system: small bowel of mice after ileocecal resection (ICR); test: Histologic markers of adaptation (villus height, crypt depth, bowel circumference, intestinal length) after ICR; format: in vivo, mouse; conditions: for crypt depth, median / intestinal length (corrected), median / small bowel circumference, median / villus height, median: 2′-FL supplemented ICR subgroup, interquartile range in brackets
Description: At the time of resection, tissue was obtained to prepare for histologic examination (FIG. 12). No differences in measurements of villus height, crypt depth, and bowel circumference were found at the time of resection. […] Crypts of both post-operative control and 2′ FL supplemented groups were deeper than those of pre-operative tissue. […] Only weights were obtained from non-operated control animals. Resected intestine from operated animals was measured for length then the site of small bowel transection was processed for small bowel contents, histology, and RNA. At the time of experimental completion, small bowel immediately proximal to the site of anastomosis was also harvested for small bowel contents, histology, and RNA from the operated group. Small bowel tissue samples for histology were cut in the longitudinal and transverse section, fixed with 4% paraformaldehyde, mounted in paraffin, and stained with hemotoxylin and eosin. Villous height, crypt depth, and bowel circumference were measured in a blinded manor. At least 10 well-oriented villus and crypt domains were assessed for each sample and two samples were averaged per mouse. The serosal circumference was measured twice per sample with two samples per mouse. The average value per mouse was determined. Measurements were performed using the Nikon Ti-Eclipse with NIS Element Advanced Research version 4.20 (Nikon Inc, NY). […] Intestinal length was compared across groups using the Wilcoxon rank-sum test as values were not normally distributed. Histologic count data was averaged per mouse across two samples and compared by the Wilcoxon rank-sum test. Weight data was analyzed using Stata version 13.0 (StataCorp LP, TX). Remaining morphometric and histologic data were analyzed using GraphPad Prism version 5 (GraphPad Software Inc, CA).

[3] = system: environmental enteropathy growth model; test: Environmental enteropathy growth model (control diet or regional-based diet); format: in vivo, mouse; conditions: 2.5 g/L in drinking water from 4 weeks of age
From the text: FIG. 41 is a scheme showing a 2′-FL experiment: Environmental Enteropathy. All dams were placed on Regional-based Diet when their pups were 10 days old. At weaning (3 weeks of age), pups were placed on either control diet (CD) or continued on regional-based diet (RBD), which is a malnutrition diet lacking nutrients. At 4 weeks of age, the pups were given either plain drinking water or 2-FL (2.5 g/L) in sipper sacs. Sipper sacs were changed and weighed every other day. Mice and food were weighed twice a week. Stool was collected at weaning, 6 weeks of age, and 8 weeks of age. Mice were sacrificed at 8 weeks of age. To further support the findings of the beneficial effect of 2′ FL supplementation on infant growth, another experiment as outlined in FIG. 41 was performed. All dams were placed on Regional-based Diet when their pups were 10 days old. At weaning (3 wks of age), pups were placed on either control diet (CD) or continued on regional-based diet (RBD), which is a malnutrition diet lacking nutrients. At 4 wks of age, the pups were given either plain drinking water or 2-FL (2.5 g/L) in sipper sacs. Sipper sacs were changed and weighed every other day. Mice and food were weighed twice a week. Stool was collected at weaning, 6 weeks of age, and 8 weeks of age. Mice were sacrificed at 8 weeks of age.

Q: With `C[C@@H]1O[C@@H](O[C@H]2[C@H](O[C@H]3[C@H](O)[C@@H](O)C(O)O[C@@H]3CO)O[C@H](CO)[C@H](O)[C@@H]2O)[C@@H](O)[C@H](O)[C@@H]1O` (stereo partly shown) [2′-FL, 2′-fucosyllactose] as the compound, how does the “time to return to preoperative weight after ICR” value ([1]; 2′-FL supplemented ICR subgroup) read?
A: 3 to 4 weeks

Q: What about the “body weight lost during the first postoperative week” value ([1]; 2′-FL supplemented ICR subgroup, 2.5 grams per liter in formula then water) of the same compound?
A: approximately 10%

Q: What about the “weight / weight gain compared to control after ICR” value [1] of the same compound?
A: improved growth; also recorded: increased weight gain; also recorded: gained more weight

Q: What about the “weight / weight gain compared to control after ICR” value ([1]; listed as 2′FL) of the same compound?
A: improved late-term weight-gain profile

Q: And the “weight difference between control and 2′-FL supplemented subgroups” value ([1]; animals taken to harvest at postoperative day 21)?
A: no significant weight difference

Q: And the “percent of preoperative body weight achieved” value ([1]; at 56 days after ICR, 2′-FL supplemented ICR subgroup)?
A: 110%

Q: What about the “crypt depth, median” value ([2]; postoperative day 21) of the same compound?
A: 89 μm

Q: What about the “intestinal length (corrected), median” value ([2]; postoperative day 21) of the same compound?
A: 35.5 cm

Q: What about the “small bowel circumference, median” value ([2]; postoperative day 21) of the same compound?
A: 7,133 μm

Q: And the “villus height, median” value ([2]; postoperative day 21)?
A: 346 μm

Q: And the “crypt depth, median” value ([2]; postoperative day 56)?
A: 106 μm

Q: And the “intestinal length (corrected), median” value ([2]; postoperative day 56)?
A: 38.5 cm

Q: And the “small bowel circumference, median” value ([2]; postoperative day 56)?
A: 9,671 μm

Q: And the “villus height, median” value ([2]; postoperative day 56)?
A: 405 μm

Q: What about the “histologic markers of adaptation (crypt depth, villus height, bowel circumference) compared to control” value ([2]; point of weight divergence, 21 days post-ICR) of the same compound?
A: did not alter

Q: What about the “crypt depth compared to control ICR” value ([2]; postoperative day 21) of the same compound?
A: no difference

Q: And the “villus height compared to control ICR” value ([2]; postoperative day 21)?
A: no difference

Q: What about the “intestinal length compared to control ICR” value ([2]; postoperative day 21 and day 56) of the same compound?
A: no difference

Q: And the “villus height compared to control ICR” value ([2]; postoperative day 56)?
A: appeared longer; also recorded: trended toward a greater height

Q: What about the “crypt depth compared to control ICR” value ([2]; postoperative day 56 (8 weeks)) of the same compound?
A: increased; also recorded: significantly deeper

Q: What about the “crypt depth compared to control ICR” value ([2]; postoperative day 56 (8 weeks), listed as 2′ Fl) of the same compound?
A: significantly greater

Q: What about the “crypt depth compared to control ICR” value ([2]; postoperative day 56 (8 weeks), listed as 2′FL) of the same compound?
A: significantly greater

Q: What about the “bowel circumference compared to control ICR” value ([2]; postoperative day 56 (Example 2)) of the same compound?
A: no significant difference

Q: What about the “villus height compared to control ICR” value ([2]; postoperative day 56, listed as 2′-Fl) of the same compound?
A: appeared longer

Q: What about the “duration of the acute histologic response to ICR compared to control” value ([2]; postoperative day 56 plotted alongside day 21) of the same compound?
A: sustains the acute histologic response over a longer time period; also recorded: sustained the acute increases

Q: What about the “small bowel circumference compared to control ICR” value ([2]; postoperative days 21 or 56) of the same compound?
A: no statistical difference

Q: What about the “growth (weight change over time)” value ([3]; control diet) of the same compound?
A: increased growth

Q: And the “growth (weight change over time)” value ([3]; regional based diet (malnutrition diet))?
A: did not increase growth
